Assay results: paper PMC11434796, “An Innovative Bio-Vehicle for Resveratrol and Tocopherol Based on Quinoa 11S Globulin—Nanocomplex Design and Characterization” (Pharmaceutics, 2024)

Target: T1, quinoa 11S globulin (11S; chenopodin)
T1 construct: gene 11S globulin A; native, from defatted quinoa seed flour (seed origin Peru); alkaline extraction, pH 4.5 precipitation, size-exclusion FPLC; acidic (30-35 kDa) and basic (17-20 kDa) subunits disulfide-linked, about 55 kDa; isoform mixture not resolved; docking used amaranth 3qac as homologue
Experiment: isothermal titration calorimetry
Assay type: binding, Chenopodium quinoa
Details: distilled water pH 9, 25 °C, n 0.91
From the text: isothermal titration calorimetry on quinoa 11S globulin (11S; chenopodin)

For Oc1ccc(/C=C/c2cc(O)cc(O)c2)cc1 [RSV, 3,5,4′-trihydroxystilbene], the Kd (protein 36.4 µM) was 48.2 ± 1 µM and the “Ka (M^-1)” value (same titration as the Kd) was “(2.1 ± 0.3) × 10^4”.
